Results from patent publication US5880160A (priority 1995, dated 1999).

Columns and labels:
MCF-7 (human breast) = assay: cells; assay type: cell-based; settings: MCF-7 human breast cell line, in vitro
MCF7-ADR (resistant) = assay: cells; assay type: cell-based, human; settings: for IC50: MCF7-ADR resistant cell line, in vitro; for MCF7-ADR/MCF7: ratio of IC50 in MCF7-ADR to IC50 in MCF-7

| Structure (SMILES) | IC50 (MCF-7 (human breast); MCF7) | IC50 (MCF7-ADR (resistant); Homo sapiens, NCI/ADR-RES) | MCF7-ADR/MCF7 (MCF7-ADR (resistant)) | IC50 (MCF-7 (human breast)) | IC50 (MCF7-ADR (resistant)) |
| --- | --- | --- | --- | --- | --- |
| COc1cc2c(c(OC)c1OC)-c1ccc(SC)c(=O)cc1[C@@H](NC(=O)C(F)(F)C(F)(F)F)CC2 [Compound I, N-deacetyl-N-pentafluoro-propionyl-thiocolchicine] | 6.2 ± 0.4 nM | 26 ± 2.3 nM | 4.2 | – | – |
| CCCCCC/C=C/C#CCCCCCCCC(=O)Oc1cc2c(c(OC)c1OC)-c1ccc(SC)c(=O)cc1C(NC(=O)C(F)(F)C(F)(F)F)CC2 (stereo not shown) [Compound II, N-deacetyl-N-pentafluoropropionyl-3-O-ximenoyl-thiocolchicine] | – | – | 2.2 | 5 ± 0.2 nM | 11 ± 1.9 nM |
| COc1cc2c(c(OC)c1OC)-c1ccc(SC)c(=O)cc1[C@@H](NC(=O)C(F)(F)C(F)(F)C(F)(F)F)CC2 [Compound IV, N-deacetyl-N-heptafluorobutyroyl-thiocolchicine] | 3.2 ± 0.2 nM | 31 ± 1.9 nM | 9.7 | – | – |
| COc1c(OC2C=CCC2)cc2c(c1OC)-c1ccc(SC)c(=O)cc1[C@@H](NC(=O)C(F)(F)C(F)(F)F)CC2 (stereo partly shown) [Compound III, N-deacetyl-N-pentafluoropropionyl-3-O-demethyl-3-O-cyclopentenyl-thiocolchicine] | 4.1 ± 0.3 nM | 7 ± 0.4 nM | 1.7 | – | – |
| CC(=O)O[C@H]1C(=O)[C@@]2(C)[C@H]([C@H](OC(=O)c3ccccc3)[C@]3(O)C[C@H](OC(=O)[C@H](O)[C@@H](NC(=O)c4ccccc4)c4ccccc4)C(C)=C1C3(C)C)[C@]1(OC(C)=O)CO[C@@H]1C[C@@H]2O [Taxol, reference compound] | 6.1 ± 0.3 nM | 360 ± 7.8 nM | 59.01 | – | – |
| COc1cc2c(c(OC)c1OC)-c1ccc(OC)c(=O)cc1[C@@H](NC(C)=O)CC2 [Colchicine, colchicine, reference compound] | – | – | 25.45 | – | – |
